From patent publication US5998442A, “Benzo [B] thiophene compounds, and compositions for treating bone loss, and hyperlipidemia” (Eli Lilly and Company, priority 1997, dated 1999) come the findings set out here.

The term IC50 denotes the midpoint of a concentration-inhibition curve.

Test [1] concerns serum cholesterol, ovariectomized rats. Briefly: Serum cholesterol in ovariectomized rats (4 days daily oral dosing). Format: in vivo, rat (female Sprague Dawley). To be noted: Rattus norvegicus, 96 h, read-out: Serum Cholesterol (% decrease vs. OVX); for inhibition in vivo at 0.1 mg/kg: 0.1 mg/kg PO; for inhibition in vivo at 1 mg/kg: 1.0 mg/kg PO; for inhibition in vivo at 10 mg/kg: 10.0 mg/kg PO. Here is the method: (§1) In the examples illustrating the methods, a postmenopausal model was used in which effects of different treatments upon circulating lipids were determined.
(§2) Seventy-five day old female Sprague Dawley rats (weight range of 200 to 225 g) were obtained from Charles River Laboratories (Portage, Mich.). The animals were either bilaterally ovariectomized (OVX) or exposed to a Sham surgical procedure at Charles River Laboratories, and then shipped after one week. Upon arrival, they were housed in metal hanging cages in groups of 3 or 4 per cage and had ad libitum access to food (calcium content approximately 0.5%) and water for one week. Room temperature was maintained at 22.2°±1.70° C. with a minimum relative humidity of 40%. The photoperiod in the room was 12 hours light and 12 hours dark.
(§3) After a one week acclimation period (therefore, two weeks post-OVX) daily dosing with test compound was initiated. […] Animals were dosed daily for 4 days. Following the dosing regimen, animals were weighed and anesthetized with a ketamine: Xylazine (2:1, V:V) mixture and a blood sample was collected by cardiac puncture. The animals were then sacrificed by asphyxiation with CO2, the uterus was removed through a midline incision, and a wet uterine weight was determined.
Blood samples were allowed to clot at room temperature for 2 hours, and serum was obtained following centrifugation for 10 minutes at 3000 rpm. Serum cholesterol was determined using a Boehringer Mannheim Diagnostics high performance cholesterol assay. Briefly the cholesterol was oxidized to cholest-4-en-3-one and hydrogen peroxide. The hydrogen peroxide was then reacted with phenol and 4-aminophenazone in the presence of peroxidase to produce a p-quinone imine dye, which was read spectrophotemetrically at 500 nm. Cholesterol concentration was then calculated against a standard curve. The entire assay was automated using a Biomek Automated Workstation. […]
(§4) The data presented in Table 1 below reflects the response of 5 to 6 rats per treatment.

For test [2], the system named is uterus, ovariectomized rats. Briefly: Uterine weight in ovariectomized rats (4 days daily oral dosing). In kind it is in vivo, rat (female Sprague Dawley). To be noted: Rattus norvegicus, 96 h, read-out: Uterine weight (% increase vs. OVX); for change in vivo at 0.1 mg/kg: 0.1 mg/kg PO; for change in vivo at 1 mg/kg: 1.0 mg/kg PO; for change in vivo at 10 mg/kg: 10.0 mg/kg PO. The procedure: as §1, §2, §3
This uterine response to estrogen is well recognized in the art.
as §4

For test [3], the system named is Uterine Eosinophil Peroxidase (EPO). Briefly: Uterine Eosinophil Peroxidase (EPO) Assay in ovariectomized rats. In kind it is in vivo, rat (female Sprague Dawley). Also noted: Uterine EPO (Vmax): unit not given here.
Description: as §2, §3
Uteri were kept at 4° C. until time of enzymatic analysis. The uteri were then homogenized in 50 volumes of 50 mM Tris buffer (pH-8.0) containing 0.005% Triton X-100. Upon addition of 0.01% hydrogen peroxide and 10 mM O-phenylenediamine (final concentrations) in Tris buffer, increase in absorbance was monitored for one minute at 450 nm. The presence of eosonophils in the uterus is an indication of estrogenic activity of a compound. The maximal velocity of a 15 second interval was determined over the initial, linear portion of the reaction curve.
As is expressed in the data below, estrogenicity also was assessed by evaluating the adverse response of eosinophil infiltration into the uterus.
as §4

The test system of test [4] is MCF-7 breast adenocarcinoma cells. The experiment in a line: MCF-7 Proliferation Assay (tritiated thymidine). Format: cell-based. To be noted: Homo sapiens, MCF7, 48 hours, read-out: IC50. The procedure: MCF-7 breast adenocarcinoma cells (ATCC HTB 22) were maintained in MEM (minimal essential medium, phenol red-free, Sigma, St. Louis, Mo.) supplimented with 10% fetal bovine serum (FBS) (V/V), L-glutamine (2 mM), sodium pyruvate (1 mM), HEPES {(N-[2-hydroxyethyl]piperazine-N'-[2-ethanesulfonic acid]10 mM}, non-essential amino acids and bovine insulin (1 ug/mL) (maintenance medium). Ten days prior to assay, MCF-7 cells were switched to maintenance medium supplemented with 10% dextran coated charcoal stripped fetal bovine serum (DCC-FBS) assay medium) in place of 10% FBS to deplete internal stores of steroids. MCF-7 cells were removed from maintenance flasks using cell dissociation medium (Ca++/Mg++ free HBSS (phenol red-free) supplemented with 10 mM HEPES and 2 mM EDTA). Cells were washed twice with assay medium and adjusted to 80,000 cells/mL. Approximately […] (8,000 cells) were added to flat-bottom microculture wells (Costar 3596) and incubated at 37° C. in a 5% CO2 humidified incubator for 48 hours to allow for cell adherence and equilibration after transfer. Serial dilutions of drugs or DMSO as a diluent control were prepared in assay medium and […] to triplicate microcultures followed by […] assay medium for a final volume of […]. After an additional 48 hours at 37° C. in a 5% CO2 humidified incubator, microcultures were pulsed with tritiated thymidine (1 uCi/well) for 4 hours. Cultures were terminated by freezing at -70° C. for 24 hours followed by thawing and harvesting of microcultures using a Skatron Semiautomatic Cell Harvester. Samples were counted by liquid scintillation using a Wallac BetaPlace b counter. Results in Table 4 below show the IC50 for certain compounds of the instant invention. […]

For `O=C(c1ccc(OCCN2CCCCC2)cc1)c1c(-c2ccc(O)c(Cl)c2)sc2cc(O)ccc12` [Example 5, [2-(3-Chloro-4-hydroxyphenyl)-6-hydroxybenzo[b]thien-3-yl][4-[2-(1-piperidinyl)ethoxy]phenyl]methanone], in test [1], the inhibition in vivo at 0.1 mg/kg was determined as 18.6%, the inhibition in vivo at 1 mg/kg was determined as 52.6% and the inhibition in vivo at 10 mg/kg came to 71.5%. For the same molecule, in test [2], the change in vivo at 0.1 mg/kg is -22.6%, the change in vivo at 1 mg/kg was found to be 20.7% and the change in vivo at 10 mg/kg amounted to 30.2%. Moreover, the “Uterine EPO (Vmax)” value in test [3] (0.1 mg/kg PO) is 1.2. For the same molecule, the “Uterine EPO (Vmax)” value in test [3] (1.0 mg/kg PO) is 2.4. Moreover, the “Uterine EPO (Vmax)” value in test [3] (10.0 mg/kg PO) worked out at 1.3. Further, the IC50 in test [4] turned out to be 2.3 nM.

Take `Cc1cc(-c2sc3cc(O)ccc3c2C(=O)c2ccc(OCCN3CCCCC3)cc2)ccc1O` [Example 7, [2-(3-Methyl-4-hydroxyphenyl)-6-hydroxybenzo[b]thien-3-yl][4-[2-(1-piperidinyl)ethoxy]phenyl]methanone]: in test [1], the inhibition in vivo at 0.1 mg/kg stood at 53.7%, the inhibition in vivo at 1 mg/kg is 77.6% and the inhibition in vivo at 10 mg/kg came out at 49.7%. Also, in test [2], the change in vivo at 0.1 mg/kg is 7.6%, the change in vivo at 1 mg/kg turned out to be 15.6% and the change in vivo at 10 mg/kg is 24.6%. In addition, the “Uterine EPO (Vmax)” value in test [3] (0.1 mg/kg PO) came out at 4.9. In test [3] (1.0 mg/kg PO), the “Uterine EPO (Vmax)” value is given as 2.5. The “Uterine EPO (Vmax)” value in test [3] (10.0 mg/kg PO) worked out at 2.8. Moreover, the IC50 in test [4] worked out at 1 nM.

On to `COc1ccc2c(C(=O)c3ccc(OCCN4CCCCC4)cc3)c(-c3ccc(OC)c(OC)c3)sc2c1` [Example 8, [2-(3,4-Dimethoxyphenyl)-6-methoxybenzo[b]thien-3-yl][4-[2-(1-piperidinyl)ethoxy]phenyl]methanone], for which, in test [1], the inhibition in vivo at 0.1 mg/kg was 24.8%, the inhibition in vivo at 1 mg/kg was determined as 57.8% and the inhibition in vivo at 10 mg/kg worked out at 60.8%. In test [2], the change in vivo at 0.1 mg/kg is -8.3%, the change in vivo at 1 mg/kg is 23.4% and the change in vivo at 10 mg/kg was determined as 24.1%. The “Uterine EPO (Vmax)” value in test [3] (0.1 mg/kg PO) worked out at 1.3. In test [3] (1.0 mg/kg PO), the “Uterine EPO (Vmax)” value was 4.4. Besides, in test [3] (10.0 mg/kg PO), the “Uterine EPO (Vmax)” value was 11.2.

Turning to `O=C(c1ccc(OCCN2CCCCC2)cc1)c1c(-c2ccccc2O)sc2cc(O)ccc12` [Example 10, [2-(2-Hydroxyphenyl)-6-hydroxybenzo[b]thien-3-yl][4-[2-(1-piperidinyl)ethoxy]phenyl]methanone], in test [1], the inhibition in vivo at 0.1 mg/kg was 7.8%, the inhibition in vivo at 1 mg/kg was 19.5% and the inhibition in vivo at 10 mg/kg is 33.2%. In test [2], the change in vivo at 0.1 mg/kg is -18.3%, the change in vivo at 1 mg/kg is -21% and the change in vivo at 10 mg/kg came to 10.6%. In addition, in test [3] (0.1 mg/kg PO), the “Uterine EPO (Vmax)” value is given as 2.8. In addition, in test [3] (1.0 mg/kg PO), the “Uterine EPO (Vmax)” value is listed as 1.7. In addition, the “Uterine EPO (Vmax)” value in test [3] (10.0 mg/kg PO) amounted to 3.7. Also, the half-maximal inhibitory concentration (IC50) in test [4] was determined as 10 nM.

For the molecule `O=C(Oc1cccc(-c2sc3cc(OC(=O)c4ccccc4)ccc3c2C(=O)c2ccc(OCCN3CCCCC3)cc2)c1)c1ccccc1` [Example 13, [2-(3-Benzoyloxyphenyl)-6-benzoyloxybenzo[b]thien-3-yl][4-[2-(1-piperidinyl)ethoxy]phenyl]methanone], in test [1], the inhibition in vivo at 0.1 mg/kg was found to be 25.3%, the inhibition in vivo at 1 mg/kg stood at 45.7% and the inhibition in vivo at 10 mg/kg was 61.4%. For the same molecule, in test [2], the change in vivo at 0.1 mg/kg was -18.6%, the change in vivo at 1 mg/kg came to 34.7% and the change in vivo at 10 mg/kg came out at 27.6%. Further, the “Uterine EPO (Vmax)” value in test [3] (0.1 mg/kg PO) turned out to be 3.0. Further, the “Uterine EPO (Vmax)” value in test [3] (1.0 mg/kg PO) was determined as 6.0. In addition, the “Uterine EPO (Vmax)” value in test [3] (10.0 mg/kg PO) amounted to 8.4.

On to `Cc1cc(O)ccc1-c1sc2cc(O)ccc2c1C(=O)c1ccc(OCCN2CCCCC2)cc1` [Example 16, [2-(2-Methyl-4-hydroxyphenyl)-6-hydroxybenzo[b]thien-3-yl][4-[2-(1-piperidinyl)ethoxy]phenyl]methanone], for which, in test [1], the inhibition in vivo at 0.1 mg/kg came to 39.2%, the inhibition in vivo at 1 mg/kg is 62.6% and the inhibition in vivo at 10 mg/kg came out at 68.5%. Also, in test [2], the change in vivo at 0.1 mg/kg amounted to 54.5%, the change in vivo at 1 mg/kg was determined as 53.7% and the change in vivo at 10 mg/kg was found to be 62.7%. In test [3] (0.1 mg/kg PO), the “Uterine EPO (Vmax)” value was found to be 8.1. Moreover, the “Uterine EPO (Vmax)” value in test [3] (1.0 mg/kg PO) worked out at 8.4. Also, the “Uterine EPO (Vmax)” value in test [3] (10.0 mg/kg PO) is given as 8.1. The concentration for half-maximal inhibition (IC50) in test [4] was 2 nM.

With `COc1ccc(-c2sc3cc(OC)ccc3c2C(=O)c2ccc(OCCN3CCCCC3)cc2)c(OC)c1` [Example 17, [2-(2,4-Dimethoxyphenyl)-6-methoxybenzo[b]thien-3-yl] [4-[2-(1-piperidinyl)ethoxy]phenyl]methanone], in test [1], the inhibition in vivo at 0.1 mg/kg turned out to be 51.4%, the inhibition in vivo at 1 mg/kg was 68.5% and the inhibition in vivo at 10 mg/kg was determined as 67.2%. In test [2], the change in vivo at 0.1 mg/kg came to 40.1%, the change in vivo at 1 mg/kg worked out at 66.1% and the change in vivo at 10 mg/kg was determined as 53.7%. The “Uterine EPO (Vmax)” value in test [3] (0.1 mg/kg PO) is reported as 20.4. Besides, the “Uterine EPO (Vmax)” value in test [3] (1.0 mg/kg PO) is 102.0. For the same molecule, the “Uterine EPO (Vmax)” value in test [3] (10.0 mg/kg PO) worked out at 20.1. Also, the 50% inhibitory concentration (IC50) in test [4] turned out to be 300 nM.

Take `COc1cc(O)ccc1-c1sc2cc(O)ccc2c1C(=O)c1ccc(OCCN2CCCCC2)cc1` [Example 18, [2-(4-Hydroxy-2-methoxyphenyl)-6-hydroxybenzo[b]thien-3-yl] [4-[2-(1-piperidinyl)ethoxy]phenyl]methanone]: in test [1], the inhibition in vivo at 0.1 mg/kg is 58.8%, the inhibition in vivo at 1 mg/kg stood at 79% and the inhibition in vivo at 10 mg/kg turned out to be 71.6%. Also, in test [2], the change in vivo at 0.1 mg/kg came to 64.1%, the change in vivo at 1 mg/kg was 69.2% and the change in vivo at 10 mg/kg came out at 73.3%. Also, in test [3] (0.1 mg/kg PO), the “Uterine EPO (Vmax)” value stood at 34.2. Further, the “Uterine EPO (Vmax)” value in test [3] (1.0 mg/kg PO) is recorded as 81.9. The “Uterine EPO (Vmax)” value in test [3] (10.0 mg/kg PO) was 135.9. The half-maximal inhibitory concentration (IC50) in test [4] turned out to be 2 nM.

Regarding `C[C@]12CC[C@@H]3c4ccc(O)cc4CC[C@H]3[C@@H]1CC[C@@H]2O` [estradiol, reference compound], the “eosinophil infiltration into the uterus (in words)” value in test [3] (stromal layer of ovariectomized rats) is “substantial, expected increase in eosinophil infiltration”.
